Reference: patent US10118947B2, “Modulation of structured polypeptide specificity” (BICYCLE THERAPEUTICS LIMITED, priority 2013, dated 2018)
Numbered stars: 1 amine (or outer) side, 2 acyl side, 3 side chain; on linkers, the order of the positions; unused ones are H or OH. Bridge positions count the residues as written; N and C are the ends. Square brackets hold non-standard residues; d marks the D form. Peptide text beside a SMILES is read from it. Pro(trans-4-Ph) = O=C(O)[C@@H]1C[C@@H](c2ccccc2)CN1; Pro(4R-Bn) = O=C(O)[C@@H]1C[C@@H](Cc2ccccc2)CN1; Tpi = O=C(O)[C@@H]1Cc2c([nH]c3ccccc23)CN1; Dip = N[C@H](C(=O)O)C(c1ccccc1)c1ccccc1; X2 = O=C([C@@H]1Cc2ccccc2N1[*:1])[*:2]; 2Nal = N[C@@H](Cc1ccc2ccccc2c1)C(=O)O; TBMB = c1c(C[*:1])cc(C[*:3])cc1C[*:2]; Hyp = O=C(O)[C@@H]1C[C@@H](O)CN1; 3Pal = N[C@@H](Cc1cccnc1)C(=O)O; Tic = O=C(O)[C@@H]1Cc2ccccc2CN1; Cha = N[C@@H](CC1CCCCC1)C(=O)O; Pen = CC(C)(S)[C@H](N)C(=O)O; Pip = O=C(O)[C@@H]1CCCCN1; Abu = CC[C@H](N)C(=O)O; Aib = CC(C)(N)C(=O)O

experiment: Plasma stability profiling Method #1 (MALDI-TOF, 35% plasma), rat plasma; assay type: in vitro ADME; conditions: Table 12; method #1
Experimental: A rapid plasma stability profiling assay was developed that employed mass spectrometric detection (MALDI-TOF, Voyager DE, Applied Biosystems) of the parent mass, until the time when the parent peptide mass was no longer observable. Specifically, 200 uM of peptide was incubated in the presence of 35% rat or human plasma (Sera labs, using citrate as anticoagulant) at 37 deg C., which was supplemented with 1×PBS (derived from a 10×PBS Stock, Sigma). At various time points (i.e. t=0, 3, 24 hrs, henceafter daily up to 10 days), 2 uL of sample was added to 18 uL of 30 mM ammonium bicarbonate in a 1:1 mixture of acetonitrile:H2O. Samples were frozen at −80 deg C. until the time of analysis. For mass spectrometric analysis that determines the approximate detection window of the peptide, the acetonitrile:H2O-diluted sample of a given time point was spotted directly (0.7 uL) onto the MALDI plate. Matrix (alpha-cyanocinnamic acid, Sigma, prepared as a saturated solution in 1:1 acetonitrile:water containing 0.1% trifluoroacetic acid) was layered over the sample (1 uL). At a similar laser intensity setting on the MALDI TOF, the time could then be determined until parent peptide was no longer detectable. It should be noted that this is a qualitative assay serves to detect relative changes in plasma stability.

SMILES	Observable in rat plasma, for days [days]
CC(=O)N[C@H]1CSCc2cc3cc(c2)CSC[C@H](NC(=O)[C@H](CCCNC(=N)N)NC(=O)[C@H](C)NC(=O)[C@@H]2CCCN2C(=O)[C@H](Cc2ccc4ccccc4c2)NC(=O)[C@H](CO)NC1=O)C(=O)N[C@@H](CC(C)C)C(=O)N[C@@H](Cc1c[nH]cn1)C(=O)N[C@@H](CCC(N)=O)C(=O)N[C@@H](CC(=O)O)C(=O)N[C@@H](CC(C)C)C(=O)N[C@H](C(N)=O)CSC3 [Ac-(06-34-18) 2NAL2] (Ac-CS[2Nal]PARCLHQDLC-NH2; linker 1-7-13 via TBMB)	2
CC(=O)N[C@H]1CSCc2cc3cc(c2)CSC[C@H](NC(=O)[C@H](CCCNC(=N)N)NC(=O)[C@H](C)NC(=O)[C@@H]2CCCN2C(=O)[C@H](C(c2ccccc2)c2ccccc2)NC(=O)[C@H](CO)NC1=O)C(=O)N[C@@H](CC(C)C)C(=O)N[C@@H](Cc1c[nH]cn1)C(=O)N[C@@H](CCC(N)=O)C(=O)N[C@@H](CC(=O)O)C(=O)N[C@@H](CC(C)C)C(=O)N[C@H](C(N)=O)CSC3 [Ac-(06-34-18) 3,3-DPA2] (Ac-CS[Dip]PARCLHQDLC-NH2; linker 1-7-13 via TBMB)	2
CC(=O)N[C@H]1CSCc2cc3cc(c2)CSC[C@H](NC(=O)[C@H](CCCNC(=N)N)NC(=O)[C@H](C)NC(=O)[C@@H]2CCCN2C(=O)[C@H](Cc2cccnc2)NC(=O)[C@H](CO)NC1=O)C(=O)N[C@@H](CC(C)C)C(=O)N[C@@H](Cc1c[nH]cn1)C(=O)N[C@@H](CCC(N)=O)C(=O)N[C@@H](CC(=O)O)C(=O)N[C@@H](CC(C)C)C(=O)N[C@H](C(N)=O)CSC3 [Ac-(06-34-18) 3Pal2] (Ac-CS[3Pal]PARCLHQDLC-NH2; linker 1-7-13 via TBMB)	2
CC(=O)N[C@H]1CSCc2cc3cc(c2)CSC[C@H](NC(=O)[C@H](CCCNC(=N)N)NC(=O)[C@H](C)NC(=O)[C@@H]2CCCN2C(=O)[C@H](CC2CCCCC2)NC(=O)[C@H](CO)NC1=O)C(=O)N[C@@H](CC(C)C)C(=O)N[C@@H](Cc1c[nH]cn1)C(=O)N[C@@H](CCC(N)=O)C(=O)N[C@@H](CC(=O)O)C(=O)N[C@@H](CC(C)C)C(=O)N[C@H](C(N)=O)CSC3 [Ac-(06-34-18) Cha2] (Ac-CS[Cha]PARCLHQDLC-NH2; linker 1-7-13 via TBMB)	2

same assay, conditions: Table 13; method #1

Observable in rat plasma, for days [days]	SMILES
2	CC(=O)N[C@H]1CSCc2cc3cc(c2)CSC[C@H](NC(=O)[C@H](CCCNC(=N)N)NC(=O)[C@H](C)NC(=O)[C@@H]2C[C@@H](O)CN2C(=O)[C@H](Cc2c[nH]c4ccccc24)NC(=O)[C@H](CO)NC1=O)C(=O)N[C@@H](CC(C)C)C(=O)N[C@@H](Cc1c[nH]cn1)C(=O)N[C@@H](CCC(N)=O)C(=O)N[C@@H](CC(=O)O)C(=O)N[C@@H](CC(C)C)C(=O)N[C@H](C(N)=O)CSC3 [Ac-(06-34-18) HyP3] (Ac-CSW[Hyp]ARCLHQDLC-NH2; linker 1-7-13 via TBMB)
2	CC(=O)N[C@H]1CSCc2cc3cc(c2)CSC[C@H](NC(=O)[C@H](CCCNC(=N)N)NC(=O)[C@H](C)NC(=O)[C@@H]2Cc4ccccc4N2C(=O)[C@H](Cc2c[nH]c4ccccc24)NC(=O)[C@H](CO)NC1=O)C(=O)N[C@@H](CC(C)C)C(=O)N[C@@H](Cc1c[nH]cn1)C(=O)N[C@@H](CCC(N)=O)C(=O)N[C@@H](CC(=O)O)C(=O)N[C@@H](CC(C)C)C(=O)N[C@H](C(N)=O)CSC3 [Ac-(06-34-18) Ind3] (Ac-CSW[X2]ARCLHQDLC-NH2; linker 1-7-13 via TBMB)
2	CC(=O)N[C@H]1CSCc2cc3cc(c2)CSC[C@H](NC(=O)[C@H](CCCNC(=N)N)NC(=O)[C@H](C)NC(=O)[C@@H]2CCCCN2C(=O)[C@H](Cc2c[nH]c4ccccc24)NC(=O)[C@H](CO)NC1=O)C(=O)N[C@@H](CC(C)C)C(=O)N[C@@H](Cc1c[nH]cn1)C(=O)N[C@@H](CCC(N)=O)C(=O)N[C@@H](CC(=O)O)C(=O)N[C@@H](CC(C)C)C(=O)N[C@H](C(N)=O)CSC3 [Ac-(06-34-18) Pip3] (Ac-CSW[Pip]ARCLHQDLC-NH2; linker 1-7-13 via TBMB)
2	CC(=O)N[C@H]1CSCc2cc3cc(c2)CSC[C@H](NC(=O)[C@H](CCCNC(=N)N)NC(=O)[C@H](C)NC(=O)[C@@H]2Cc4ccccc4CN2C(=O)[C@H](Cc2c[nH]c4ccccc24)NC(=O)[C@H](CO)NC1=O)C(=O)N[C@@H](CC(C)C)C(=O)N[C@@H](Cc1c[nH]cn1)C(=O)N[C@@H](CCC(N)=O)C(=O)N[C@@H](CC(=O)O)C(=O)N[C@@H](CC(C)C)C(=O)N[C@H](C(N)=O)CSC3 [Ac-(06-34-18) Tic3] (Ac-CSW[Tic]ARCLHQDLC-NH2; linker 1-7-13 via TBMB)
2	CC(=O)N[C@H]1CSCc2cc3cc(c2)CSC[C@H](NC(=O)[C@H](CCCNC(=N)N)NC(=O)[C@H](C)NC(=O)C(C)(C)NC(=O)[C@H](Cc2c[nH]c4ccccc24)NC(=O)[C@H](CO)NC1=O)C(=O)N[C@@H](CC(C)C)C(=O)N[C@@H](Cc1c[nH]cn1)C(=O)N[C@@H](CCC(N)=O)C(=O)N[C@@H](CC(=O)O)C(=O)N[C@@H](CC(C)C)C(=O)N[C@H](C(N)=O)CSC3 [Ac-(06-34-18) Aib3] (Ac-CSW[Aib]ARCLHQDLC-NH2; linker 1-7-13 via TBMB)
2	CC(=O)N[C@H]1CSCc2cc3cc(c2)CSC[C@H](NC(=O)[C@H](CCCNC(=N)N)NC(=O)[C@H](C)NC(=O)[C@@H]2Cc4c([nH]c5ccccc45)CN2C(=O)[C@H](Cc2c[nH]c4ccccc24)NC(=O)[C@H](CO)NC1=O)C(=O)N[C@@H](CC(C)C)C(=O)N[C@@H](Cc1c[nH]cn1)C(=O)N[C@@H](CCC(N)=O)C(=O)N[C@@H](CC(=O)O)C(=O)N[C@@H](CC(C)C)C(=O)N[C@H](C(N)=O)CSC3 [Ac-(06-34-18) NorHar3] (Ac-CSW[Tpi]ARCLHQDLC-NH2; linker 1-7-13 via TBMB)

Continued, compound first:

SMILES	Observable in rat plasma, for days [days]
CC(=O)N[C@H]1CSCc2cc3cc(c2)CSC[C@H](NC(=O)[C@H](CCCNC(=N)N)NC(=O)[C@H](C)NC(=O)[C@@H]2C[C@@H](c4ccccc4)CN2C(=O)[C@H](Cc2c[nH]c4ccccc24)NC(=O)[C@H](CO)NC1=O)C(=O)N[C@@H](CC(C)C)C(=O)N[C@@H](Cc1c[nH]cn1)C(=O)N[C@@H](CCC(N)=O)C(=O)N[C@@H](CC(=O)O)C(=O)N[C@@H](CC(C)C)C(=O)N[C@H](C(N)=O)CSC3 [Ac-(06-34-18) 4Phenyl Pro3] (Ac-CSW[Pro(trans-4-Ph)]ARCLHQDLC-NH2; linker 1-7-13 via TBMB)	2
CC(=O)N[C@H]1CSCc2cc3cc(c2)CSC[C@H](NC(=O)[C@H](CCCNC(=N)N)NC(=O)[C@H](C)NC(=O)[C@@H]2C[C@@H](Cc4ccccc4)CN2C(=O)[C@H](Cc2c[nH]c4ccccc24)NC(=O)[C@H](CO)NC1=O)C(=O)N[C@@H](CC(C)C)C(=O)N[C@@H](Cc1c[nH]cn1)C(=O)N[C@@H](CCC(N)=O)C(=O)N[C@@H](CC(=O)O)C(=O)N[C@@H](CC(C)C)C(=O)N[C@H](C(N)=O)CSC3 [Ac-(06-34-18) 4Benzyl Pro3] (Ac-CSW[Pro(4R-Bn)]ARCLHQDLC-NH2; linker 1-7-13 via TBMB)	2

same assay, conditions: Table 14; method #1

SMILES	Observable in rat plasma, for days [days]
CC(=O)N[C@H]1CSCc2cc3cc(c2)CSC[C@H](NC(=O)[C@H](CCCNC(=N)N)NC(=O)C(C)(C)NC(=O)[C@@H]2CCCN2C(=O)[C@H](Cc2c[nH]c4ccccc24)NC(=O)[C@H](CO)NC1=O)C(=O)N[C@@H](CC(C)C)C(=O)N[C@@H](Cc1c[nH]cn1)C(=O)N[C@@H](CCC(N)=O)C(=O)N[C@@H](CC(=O)O)C(=O)N[C@@H](CC(C)C)C(=O)N[C@H](C(N)=O)CSC3 [Ac-(06-34-18) Aib4] (Ac-CSWP[Aib]RCLHQDLC-NH2; linker 1-7-13 via TBMB)	7
CC(=O)N[C@H]1CSCc2cc3cc(c2)CSC(C)(C)[C@H](NC(=O)[C@H](CCCNC(=N)N)NC(=O)[C@H](C)NC(=O)[C@@H]2CCCN2C(=O)[C@H](Cc2c[nH]c4ccccc24)NC(=O)[C@H](CO)NC1=O)C(=O)N[C@@H](CC(C)C)C(=O)N[C@@H](Cc1c[nH]cn1)C(=O)N[C@@H](CCC(N)=O)C(=O)N[C@@H](CC(=O)O)C(=O)N[C@@H](CC(C)C)C(=O)N[C@H](C(N)=O)CSC3 [Ac-(06-34-18) Cys2ToPen2] (Ac-CSWPAR[Pen]LHQDLC-NH2; linker 1-7-13 via TBMB)	5
CC[C@@H]1NC(=O)[C@@H]2CCCN2C(=O)[C@H](Cc2c[nH]c3ccccc23)NC(=O)[C@H](CO)NC(=O)[C@@H](NC(C)=O)CSCc2cc3cc(c2)CSC[C@H](NC(=O)[C@H](CCCNC(=N)N)NC1=O)C(=O)N[C@@H](CC(C)C)C(=O)N[C@@H](Cc1c[nH]cn1)C(=O)N[C@@H](CCC(N)=O)C(=O)N[C@@H](CC(=O)O)C(=O)N[C@@H](CC(C)C)C(=O)N[C@H](C(N)=O)CSC3 [Ac-(06-34-18) Aba4] (Ac-CSWP[Abu]RCLHQDLC-NH2; linker 1-7-13 via TBMB)	2

same assay, conditions: Table 21; method #1

SMILES	Observable in rat plasma, for days [days]
CC(=O)N[C@H]1CSCc2cc3cc(c2)CSC[C@H](NC(=O)[C@H](CCCNC(=N)N)NC(=O)[C@H](CO)NC(=O)[C@@H]2CCCN2C(=O)[C@H](Cc2c[nH]c4ccccc24)NC(=O)[C@H](CO)NC1=O)C(=O)N[C@@H](CC(C)C)C(=O)N[C@@H](Cc1c[nH]cn1)C(=O)N[C@@H](CCC(N)=O)C(=O)N[C@@H](CC(=O)O)C(=O)N[C@@H](CC(C)C)C(=O)N[C@H](C(N)=O)CSC3 [Ac-(06-34-18) WPSR] (Ac-CSWPSRCLHQDLC-NH2; linker 1-7-13 via TBMB)	2
